# Reference: PubChem BioAssay AID328 (DTP/NCI, 2004)
# Several values for one entry are separate records, joined by “and”; a condition that tells them apart may be missing. Equal entries are not always repeated. Toxic doses and inconclusive results are not listed.
# Tested on: BDF1 mice, P388 leukemia ip, median survival T/C
# Assay: NCI In Vivo Anticancer Drug Screen. Data for tumor model P388 Leukemia (intraperitoneal) in B6D2F1 (BDF1) mice
# Conditions: endpoint: median survival time, higher = longer survival
# Method in brief: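 Steps: implant the tumour, treat one group with compound and another with vehicle, record survival, then divide treated by control.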
# [1] = dose: 100.0 mg/kg/injection, schedule: Q01DX009 (ip), vehicle: Klucel (hydroxypropylcellulose) (HPC)
# [2] = dose: 200.0 mg/kg/injection, schedule: Q01DX009 (ip), vehicle: Klucel (hydroxypropylcellulose) (HPC)
# [3] = dose: 100.0 mg/kg/injection, schedule: Q04DX003 (ip), vehicle: Klucel (hydroxypropylcellulose) (HPC)
# [4] = dose: 200.0 mg/kg/injection, schedule: Q04DX003 (ip), vehicle: Klucel (hydroxypropylcellulose) (HPC)
# [5] = dose: 50.0 mg/kg/injection, schedule: Q01DX009 (ip), vehicle: saline with Tween-80
# [6] = dose: 100.0 mg/kg/injection, schedule: Q01DX009 (ip), vehicle: saline with Tween-80
# [7] = dose: 50.0 mg/kg/injection, schedule: Q01DX009 (ip), vehicle: other
# [8] = dose: 100.0 mg/kg/injection, schedule: Q01DX009 (ip), vehicle: other
# [9] = dose: 200.0 mg/kg/injection, schedule: Q01DX009 (ip), vehicle: other
# [10] = dose: 400.0 mg/kg/injection, schedule: Q04DX003 (ip), vehicle: Klucel (hydroxypropylcellulose) (HPC)
# [11] = dose: 200.0 mg/kg/injection, schedule: Q01DX009 (ip), vehicle: saline with Tween-80
# [12] = dose: 50.0 mg/kg/injection, schedule: Q04DX003 (ip), vehicle: water
compound,measurement,setting,value
NC(CCC(=O)NNc1ccccc1)C(=O)O (centres undefined),T/C,"dose: 15.0 mg/kg/injection, schedule: Q01DX009 (ip), vehicle: saline with Tween-80",96 % of control
same,T/C,"dose: 30.0 mg/kg/injection, schedule: Q01DX009 (ip), vehicle: saline with Tween-80",91 % of control
O=[N+]([O-])c1ccc(N=N/C(Cc2ccccc2)=N\Nc2ccccc2)cc1,T/C,[1],100 % of control
same,T/C,[2],100 % of control
C#CCOC(=O)Nc1ccccc1Cl,T/C,"dose: 50.0 mg/kg/injection, schedule: Q01DX009 (ip), vehicle: Klucel (hydroxypropylcellulose) (HPC)",110 % of control
same,T/C,"dose: 50.0 mg/kg/injection, schedule: Q04DX003 (ip), vehicle: Klucel (hydroxypropylcellulose) (HPC)",100 % of control
same,T/C,[1],100 % of control
same,T/C,[3],109 % of control
same,T/C,[2],100 % of control
same,T/C,[4],109 % of control
COc1ccc(C(=O)C(O)c2ccccc2)cc1 (centres undefined),T/C,"dose: 100.0 mg/kg/injection, schedule: Q04DX003 (ip), vehicle: other",100 % of control
same,T/C,"dose: 200.0 mg/kg/injection, schedule: Q04DX003 (ip), vehicle: other",100 % of control
Cc1cc(N(C)C)c2ccc3c(ccc4c(N(C)C)cc(C)nc43)c2n1,T/C,[5],121 % of control
same,T/C,[6],123 % of control
CC[C@@]1(O)C(=O)OCc2c1cc1n(c2=O)Cc2cc3c(OC)cccc3nc2-1,T/C,"dose: 0.5 mg/kg/injection, schedule: Q01DX009 (ip), vehicle: carboxymethylcellulose (CMC)",182 % of control
same,T/C,"dose: 1.0 mg/kg/injection, schedule: Q01DX009 (ip), vehicle: carboxymethylcellulose (CMC)",195 % of control
O=C(CC/[N+]([O-])=C/c1ccccc1)OCc1ccccc1,T/C,"dose: 12.5 mg/kg/injection, schedule: Q01DX009 (ip), vehicle: other",92 % of control
same,T/C,"dose: 25.0 mg/kg/injection, schedule: Q01DX009 (ip), vehicle: other",97 % of control
same,T/C,[7],103 % of control
same,T/C,[8],97 % of control
same,T/C,[9],92 % of control
O=C(CC(c1ccccc1)c1ccccc1)c1ccccc1,T/C,[1],108 % of control
same,T/C,[3],120 % of control
same,T/C,[2],108 % of control
same,T/C,[4],110 % of control
same,T/C,"dose: 400.0 mg/kg/injection, schedule: Q01DX009 (ip), vehicle: Klucel (hydroxypropylcellulose) (HPC)",91 % of control
same,T/C,[10],120 % of control
Cc1ccc(NC(=O)c2ccccc2C(=O)O)cc1Cl,T/C,[3],95 % of control
same,T/C,[4],95 % of control
same,T/C,[10],91 % of control
Cc1ccc(S(=O)(=O)N/N=C2/C(=N/NS(=O)(=O)c3ccc(C)cc3)C3CCC2C3)cc1,T/C,[7],105 % of control
same,T/C,[8],96 % of control
same,T/C,[9],95 % of control
O=C1/C(=C/c2ccccc2O)SC(=S)N1CCCN1CCOCC1,T/C,[5],95 % of control
same,T/C,[6],100 % of control
same,T/C,[11],90 % of control
COc1ccc2c(c1O)-c1c(OC)c(OC)cc3c1C(C2)N(C)CC3 (centres undefined),T/C,"dose: 5.0 mg/kg/injection, schedule: Q01DX010 (ip), vehicle: saline",100 % of control
same,T/C,"dose: 10.0 mg/kg/injection, schedule: Q01DX010 (ip), vehicle: saline",95 % of control
same,T/C,"dose: 20.0 mg/kg/injection, schedule: Q01DX010 (ip), vehicle: saline",100 % of control
same,T/C,"dose: 40.0 mg/kg/injection, schedule: Q01DX010 (ip), vehicle: saline",100 % of control
O=c1c2ccccc2sc2c(CO)ccc(NCCN3CCCCC3)c12,T/C,"dose: 50.0 mg/kg/injection, schedule: Q04DX003 (ip), vehicle: saline with Tween-80",101 % of control
same,T/C,"dose: 100.0 mg/kg/injection, schedule: Q04DX003 (ip), vehicle: saline with Tween-80",101 % of control
same,T/C,"dose: 176.0 mg/kg/injection, schedule: Q04DX003 (ip), vehicle: saline with Tween-80",115 % of control
same,T/C,"dose: 200.0 mg/kg/injection, schedule: Q04DX003 (ip), vehicle: saline with Tween-80",110 % of control
same,T/C,"dose: 264.0 mg/kg/injection, schedule: Q04DX003 (ip), vehicle: saline with Tween-80",123 % of control
same,T/C,"dose: 600.0 mg/kg/injection, schedule: Q04DX003 (ip), vehicle: saline with Tween-80",180 % of control
C[CH2][Pb]([CH2]C)([CH2]C)[O]C(=O)COC,T/C,"dose: 0.78 mg/kg/injection, schedule: Q01DX009 (ip), vehicle: Klucel (hydroxypropylcellulose) (HPC)",115 % of control
same,T/C,"dose: 1.56 mg/kg/injection, schedule: Q01DX009 (ip), vehicle: Klucel (hydroxypropylcellulose) (HPC)",98 % of control
same,T/C,"dose: 3.13 mg/kg/injection, schedule: Q01DX009 (ip), vehicle: Klucel (hydroxypropylcellulose) (HPC)",121 % of control
CCOc1cccc2c1C(=O)c1c(O)c3c(c(O)c1C2=O)C[C@@](O)(C(C)=O)C[C@@H]3OC1CC(N)C(O)C(C)O1 (some centres undefined),T/C,"dose: 6.25 mg/kg/injection, schedule: Q04DX003 (ip), vehicle: water",123 % of control
same,T/C,[12],108 % of control
CN(C)C(=S)NN,T/C,"dose: 0.25 mg/kg/injection, schedule: Q01DX009 (ip), vehicle: saline with Tween-80",90 % of control
same,T/C,"dose: 0.5 mg/kg/injection, schedule: Q01DX009 (ip), vehicle: saline with Tween-80",90 % of control
same,T/C,"dose: 0.78 mg/kg/injection, schedule: Q04DX003 (ip), vehicle: saline with Tween-80",100 % of control
same,T/C,"dose: 1.0 mg/kg/injection, schedule: Q01DX009 (ip), vehicle: saline with Tween-80",95 % of control
same,T/C,"dose: 1.56 mg/kg/injection, schedule: Q04DX003 (ip), vehicle: saline with Tween-80",105 % of control
same,T/C,"dose: 3.12 mg/kg/injection, schedule: Q04DX003 (ip), vehicle: saline with Tween-80",95 % of control and 105 % of control
COC1=C(OC)C(=O)C2=C(OCCO2)C1=O,T/C,"dose: 100.0 mg/kg/injection, schedule: Q01DX001 (ip), vehicle: saline with Tween-80",104 % of control
COC(=O)OCCOC(=O)OC,T/C,"dose: 100.0 mg/kg/injection, schedule: Q01DX009 (ip), vehicle: saline",100 % of control
same,T/C,"dose: 100.0 mg/kg/injection, schedule: Q04DX003 (ip), vehicle: saline",95 % of control
same,T/C,"dose: 200.0 mg/kg/injection, schedule: Q01DX009 (ip), vehicle: saline",110 % of control
same,T/C,"dose: 200.0 mg/kg/injection, schedule: Q04DX003 (ip), vehicle: saline",100 % of control
same,T/C,"dose: 400.0 mg/kg/injection, schedule: Q01DX009 (ip), vehicle: saline",100 % of control
same,T/C,"dose: 400.0 mg/kg/injection, schedule: Q04DX003 (ip), vehicle: saline",100 % of control
C/C=C(/C)C(=O)O[C@H]1CCN2CC=C(COC(=O)[C@@](O)([C@H](C)OC)C(C)(C)O)[C@H]12,T/C,"dose: 12.5 mg/kg/injection, schedule: Q01DX010 (ip), vehicle: saline",95 % of control
same,T/C,"dose: 25.0 mg/kg/injection, schedule: Q01DX010 (ip), vehicle: saline",100 % of control
COC(=O)/C=C\SC(=S)C1CCCC1=O (centres undefined),T/C,[5],119 % of control
same,T/C,[6],110 % of control
same,T/C,[11],112 % of control
CCOC(=O)CNCc1ccc(Cl)c(Cl)c1,T/C,[12],111 % of control
same,T/C,"dose: 100.0 mg/kg/injection, schedule: Q04DX003 (ip), vehicle: water",113 % of control
same,T/C,"dose: 200.0 mg/kg/injection, schedule: Q04DX003 (ip), vehicle: water",111 % of control
C/C(=C\Cl)CN(C)C,T/C,"dose: 56.25 mg/kg/injection, schedule: Q01DX001 (ip), vehicle: saline",100 % of control
same,T/C,"dose: 56.25 mg/kg/injection, schedule: Q04DX003 (ip), vehicle: saline",95 % of control
same,T/C,"dose: 112.5 mg/kg/injection, schedule: Q01DX001 (ip), vehicle: saline",86 % of control
same,T/C,"dose: 112.5 mg/kg/injection, schedule: Q04DX003 (ip), vehicle: saline",90 % of control
same,T/C,"dose: 150.0 mg/kg/injection, schedule: Q01DX009 (ip), vehicle: saline",105 % of control
same,T/C,"dose: 225.0 mg/kg/injection, schedule: Q01DX001 (ip), vehicle: saline",100 % of control
same,T/C,"dose: 225.0 mg/kg/injection, schedule: Q01DX009 (ip), vehicle: saline",105 % of control
Brc1ccc(C#Cc2ccccc2)cc1,T/C,"dose: 100.0 mg/kg/injection, schedule: Q01DX001 (ip), vehicle: Klucel (hydroxypropylcellulose) (HPC)",104 % of control
same,T/C,"dose: 200.0 mg/kg/injection, schedule: Q01DX001 (ip), vehicle: Klucel (hydroxypropylcellulose) (HPC)",108 % of control
same,T/C,"dose: 400.0 mg/kg/injection, schedule: Q01DX001 (ip), vehicle: Klucel (hydroxypropylcellulose) (HPC)",108 % of control
O=C(Nc1cc(C(F)(F)F)cc(C(F)(F)F)c1)Nc1c(Oc2ccc(Cl)cc2Cl)ccc(Cl)c1S(=O)(=O)O,T/C,"dose: 50.0 mg/kg/injection, schedule: Q04DX003 (ip), vehicle: saline sonified",87 % of control
same,T/C,"dose: 100.0 mg/kg/injection, schedule: Q04DX003 (ip), vehicle: saline sonified",87 % of control
